# Data published in EP1212309B1, “CASPASE INHIBITOR” (LG Chem Investment, Ltd., priority 1999, dated 2001).
# Tests used:
# [1] = test system: Recombinant human caspase; assay: Inhibition of caspase activity in cell free system (chromogenic pNA substrates); assay type: biochemical; conditions: 100 µM compound, caspase-1, -2, -3, -4, -6, -7, -8 and -9, 200 µM chromogenic substrate, 37°C
# Description: The pharmacological efficacy of the compound according to the present invention was evaluated by the following experiments. Con A was purchased from Boehringer Mannheim GmbH (Mannheim, Germany). Peptide-based substrates of caspases (Ac-YVAD-pNA for caspase-1, Ac-VDVAD for caspase-2, Ac-DEVD-pNA for caspase-3, 7, 8, and 9, Ac-LEVD-pNA for caspase-4, and Ac-VEID-pNA for caspase-6) and peptide-based caspase inhibitors (Ac-DEVD-fmk, z-VAD-CHO) were purchased from Alexis Co. (San Diego, CA). Ac-DEVD-CHO and z-DEVD-cmk were purchased from Bachem; Anti Fas antibody was purchased from Oncor (Cat#A8050); WI38 cell was available from ATCC; IFN-gamma was purchased from LG Pharmaceuticals (Korea). All cell culture-media and supplements were purchased from Gibco BRL (Tsuen Wan, Hong Kong) unless mentioned otherwise. […]
# Caspase activity was tested by measuring proteolytic cleavage of peptide-based chromogenic substrate by each enzyme. […] Aliquots of the enzyme (2 µℓ containing catalytic activity of 0.2 absorbance at 405 nm/h) were mixed with 150 µℓ of 200 µM chromogenic substrate in the presence or absence of 100 µM compound 33 in 96-well plates. […] The absorbance of enzymatically released pNA was measured discontinuously at 405 nm in a microplate reader for I hr. The caspase activity was calculated from initial velocity (mean± SE)(n=4, in which n represents the number of repeated experiment).
# [2] = test system: Con A-induced acute hapatitis mice; assay: Con A-induced acute hepatitis in mice: plasma aminotransferase activity; assay type: in vivo, Balb/c mice
# Description: Female 6-week-old Balb/c mice (Charles River Laboratory, Osaka, Japan) were kept at 22 °C and 55% relative humidity in a 12-h day/night rhythm with free access to food and water. Con A was dissolved in pyrogen-free saline to a concentration of 2.5 mg/ml and was injected via the tail vein in an amount of 20mg/kg based on Con A. The animals were i.p. injected twice with compound 33 dissolved into a vehicle which consists of olive oil and 10% DMSO, or a vehicle alone, at 1 hr before and 4h after Con A injection. Animals were sacrificed by cervical dislocation at 24 hrs after Con A injection to obtain liver and blood samples.
# Blood samples obtained at step 1 were collected at 24h after Con A injection. Plasma AST and ALT activity were measured using Autokit (Youngdong Pharmaceutical Co., Seoul, Korea) following manufacturer's instruction.
# [3] = test system: hepatocytes in ConA-treated mouse liver; assay: Con A-treated mouse liver: histologic examination and detection of apoptosis (H&E, TUNEL); assay type: in vivo; conditions: ConA-treated mice, compound 33 4, 20, 100mg/kg
# Description: The present inventors estimated the prevalence of apoptotic cells in the mouse liver to certify the apoptosis-blocking effect of the compound of the present invention specifically in hepatocytes. Mice were treated ConA in the presence or absence of various dosages of compound 33 [A and G: ConA and vehicle treatment, B and H: ConA and compound 33 4mg/kg treatment, C and I: ConA and compound 33 20mg/kg treatment, D and J: ConA and compound 33 100mg/kg treatment] to prepare frozen liver sections. Also, mice were treated with PBS and vehicle (E and K), or PBS and compound 33 100mg/kg (F and L) to prepare frozen liver sections. Freshly excised mouse liver was immediately immersed in 25 % sucrose solution at 4 °C for overnight, then frozen in liquid nitrogen, and cryosectioned into 4 µm.
# For histological examination, liver sections were fixed in 1% buffered paraformaldehyde and stained with hematoxilin & eosin (Fig. 6A to F). To detect apoptotic cells in liver, frozen liver was stained using an ApopTag in situ apoptosis peroxidase detection kit (terminal deoxynucleotidyl transferase-mediated dUTP nick end labeling: TUNEL assay) (Oncor, Gaithersburg, MD) and DAKO liquid DAB (DAKO, Carpinteria, CA)(Fig. 6G to L). Staining was conducted according to manufacturer's instruction. After completion of staining, the samples were observed under an optical microscope. […]
# [4] = test system: PARP cleavage; assay: Con A-treated mouse liver: Western blotting of PARP cleavage; assay type: in vivo; conditions: liver lysate of Con A-treated mice, various doses, Western blot
# Description: In this experiment, the cleavage of PARP was identified by the appearance on Western blot analysis of an 85 kDa-cleavage product in hepatic cell lysate obtained from mice treated with Con A and various doses of the compound of formula (I).
# Freshly harvested livers treated with Con A or PBS together with various doses of compound 33 were rinsed in cold PBS and homogenized into three volumes per weight of cold PBS containing 1% Nonidet P-40, 0.1 % SDS, 1 mM PMSF, and protease inhibitor cocktail tablet Complete™ (Boehnger Mannheim, used according to manufacturer's instruction). The homogenates were incubated on ice for 30 min. Samples were then centrifuged at 16,000 x g for 30 min at 4°C. Supernatants were transferred to fresh tubes and centrifuged for additional 30 min. Harvested lysates were precleared by incubating with protein G-sepharose (Pharmacia, Uppsala, Sweden) at 4 °C for overnight, gently shaking. Supernatants were harvested by centrifugation at 1000 x g for 30 sec. at 4 °C and separated on 7 % SDS-polyacrylamide gel and transferred to nitrocellulose membrane. Blots were blocked for 1 hr at room temperature in PBS containing 5% skimmed milk and 0.1% Tween 20 under gentle shaking. Membranes were then incubated overnight with 1:1000 diluted monoclonal anti-PARP antibody (Pharmingen) under gentle shaking. […]
# [5] = test system: WI38 cells; assay: Protection from IFNγ and anti-Fas antibody-induced apoptosis (XTT); assay type: cell-based, human; conditions: 100% when Fas antibody was not treated; for viability ratio: WI38 cells
# Description: WI38 cells (human embryonal lung fibroblast) were grown in a medium containing DMEM-10% FBS within 10cm diameter dishes until reaching at confluency. The cells were seeded into a 24-well plate at day 1 and incubated overnight while the volume of medium was maintained to 400µℓ. […] At day 3, each 100 µℓ of test compound was added to the cells after diluting the 10mM stock compound in DMSO to final concentrations of 50, 10, 2, and 0.4 µ M, respectively. The cells were incubated for 2 hrs in order for allowing the compound to enter into the cells and then treated with 40ng/well of anti-Fas antibody(apoptosis was induced 2 hrs after antibody was treated and the incubation was continued overnight). The control was not treated with Fas antibody. […] After coloring, 100-200µℓ of the supernatant was transferred to a 96-well plate and the absorbance at 490 nm was read with ELISA plate reader. For the blank, XTT solution was added to the well containing the medium only. Plotting was determined by comparing with the control group (100% when Fas antibody was not treated).
smiles,measurement,setting,value
"CC(C)[C@H](NC(=O)c1cccc2ccccc12)C1=NOC(Cc2ccccc2)(C(=O)N[C@@H](CC(=O)O)C(=O)COC(=O)c2c(Cl)cccc2Cl)C1 (stereo partly drawn) [Compound 33, (3S)-3-{3-[2-methyl-(1S)-1-(1-naphthalenecarbonylamino)-propyl]-5-phenylmethyl-4,5-dihydro-isoxazole-5-carbonylamino}-4-keto-5-(2,6-dichlorobenzoyloxy)-pentanoic acid]",inhibition of recombinant caspase activity,[1],"almost completely inhibited all tested caspase activity, only except for caspase 2"
same,"AST and ALT activity, difference to Con A/vehicle group","[2]; 4mg/kg compound 33, second experiment (AST p=0.2972, ALT p=0.1378)",did not reached at statistically significant level
same,AST and ALT activities compared with ConA/vehicle group,"[2]; 20 mg/kg compound 33 (AST p=0.0174, ALT p=0.0011)",definitely reduced
same,AST activity by the compound itself (liver toxicity),"[2]; compound alone without Con A, first experiment, not statistically significant (p=0.1033)",slightly increased AST activity by itself
same,serum AST and ALT activity elevated by ConA,"[2]; i.p. twice, 1 hr before and 4h after Con A 20mg/kg i.v., blood at 24h, across doses",suppressed the elevated enzyme activities in a dose-dependent manner
same,apoptotic lesions in liver,[3],reduced dose-dependently
same,cellular histology of liver,[3],gradually recovered with increasing dose
same,PARP cleavage (85 kDa-cleavage product) caused by Con A-induced apoptotic death of hepatic cells,[4],gradually reduced as dose of compound 33 is increased
same,viability at 0.4 µM,"[5]; Homo sapiens, WI-38, WI38 cells, Conc. 0.4 µM, read-out: viability ratio",15.5%
same,viability at 2 µM,"[5]; Homo sapiens, WI-38, WI38 cells, Conc. 2 µM, read-out: viability ratio",64.4%
same,viability at 10 µM,"[5]; Homo sapiens, WI-38, WI38 cells, Conc. 10 µM, read-out: viability ratio",92.7%
same,viability at 50 µM,"[5]; Homo sapiens, WI-38, WI38 cells, Conc. 50 µM, read-out: viability ratio",100%
same,viability ratio,"[5]; Conc. 50 µM, 50 µM",100%
same,viability ratio,"[5]; Conc. 50 µM, listed as Comp 33, 50 µM",100.21%
